According to PMC4483659, “Amino Acid-Derived Metabolites from the Ascidian Aplidium sp” (Marine Drugs, 2015):
Values after ≈ are worked out from the molar mass of the structure shown. Like-named read-outs stand apart in the source and are kept apart here.

Key:
[1] = tested on: Bacillus subtilis (ATCC 6633); assay: Antibacterial assay, B. subtilis; type: cell-based
Method: (§1) The cytotoxicity assays were performed in accordance with the literature protocols. The Na^+/K^+-ATPase, isocitrate lyase, and sortase A inhibition assays were performed according to previously described methods. The antimicrobial assays were performed according to the method described previously.

[2] = tested on: Salmonella typhimurium (ATCC 14028); assay: Antibacterial assay, S. typhimurium; type: cell-based; conditions: Salmonella enterica, read-out: MIC, D: Salmonella typhimurium
Method: as §1

[3] = tested on: Micrococcus luteus (IFO 12708); assay: Antibacterial assay, M. luteus; type: cell-based
Method: as §1

[4] = tested on: Staphylococcus aureus (ATCC 6538p); assay: Antibacterial assay, S. aureus; type: cell-based; conditions: ATCC6538P, read-out: MIC, A: Staphylococcus aureus
Method: as §1

[5] = tested on: Proteus vulgaris (ATCC 3851); assay: Antibacterial assay, P. vulgaris; type: cell-based
Method: as §1

[6] = tested on: Escherichia coli (ATCC 35270); assay: Antibacterial assay, E. coli; type: cell-based
Method: as §1

sortase A = sortase A (Staphylococcus aureus, UniProt Q2FV99); assay: Sortase A inhibition assay; type: biochemical
Method: as §1

Na^+/K^+-ATPase = assay: Na+/K+-ATPase inhibition assay; type: biochemical; conditions: enzyme inhibition
Method: as §1

[7] = tested on: A549 lung cancer cell-line; assay: Cytotoxicity, A549 lung cancer cell-line; type: cell-based; conditions: Homo sapiens
Method: as §1

[8] = tested on: MRC5 human lung fibroblast cell-line; assay: Cytotoxicity, MRC5 normal cell-line; type: cell-based
Method: as §1

K562 leukemia cell-line = assay: Cytotoxicity, K562 leukemia cell-line; type: cell-based; conditions: Homo sapiens
Method: as §1

[9] = ATCC6633, Gram(+), ATCC 6633, read-out: MIC, B: Bacillus subtilis
[10] = IFO12708, Gram(+), IFO 12708, read-out: MIC, C: Micrococcus luteus
[11] = ATCC3851, Gram(−), ATCC 3851, read-out: MIC, E: Proteus vulgaris
[12] = ATCC35270, Gram(−), ATCC 35270, read-out: MIC, F: Escherichia coli
[13] = A549 lung cancer cell-line cytotoxicity, read-out: IC50, A549
[14] = MRC5 human lung fibroblast (normal) cell-line cytotoxicity, read-out: IC50, MRC5
[15] = K562 leukemia cell-line cytotoxicity, read-out: IC50, K562

sortase A, sequence (Q2FV99 whole entry): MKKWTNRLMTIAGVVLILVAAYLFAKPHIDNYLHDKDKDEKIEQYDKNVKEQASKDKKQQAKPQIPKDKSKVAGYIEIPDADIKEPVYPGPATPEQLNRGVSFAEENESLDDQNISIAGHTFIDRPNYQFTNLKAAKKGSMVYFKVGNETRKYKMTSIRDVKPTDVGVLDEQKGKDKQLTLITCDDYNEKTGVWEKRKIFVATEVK

CC1(C)S[C@@H]2[C@H](NC(=O)[C@H](N)c3ccccc3)C(=O)N2[C@H]1C(=O)O [Ampicillin, reference compound]
MIC [1, 9]: 0.4 µg/mL (≈ 1.14 µM) | MIC ([2]; Gram(−), ATCC 14028): 0.4 µg/mL (≈ 1.14 µM) | MIC [3, 10]: 0.4 µg/mL (≈ 1.14 µM) | MIC ([4]; Gram(+), ATCC 6538p): 0.4 µg/mL (≈ 1.14 µM) | MIC [5, 11]: 0.8 µg/mL (≈ 2.29 µM) | MIC [6, 12]: 6.3 µg/mL (≈ 18 µM)

CN[C@@H](Cc1cc(I)c(OC)c(I)c1)C(=O)NCCc1ccccc1 [Compound 1, apliamide A]
MIC [1, 9]: > 100 µg/mL | MIC ([2]; Gram(−), ATCC 14028): > 100 µg/mL | IC50 (sortase A): > 300 µM | IC50 (Na^+/K^+-ATPase): 163 µM | MIC [3, 10]: > 100 µg/mL | MIC ([4]; Gram(+), ATCC 6538p): > 100 µg/mL | MIC [5, 11]: > 100 µg/mL | MIC [6, 12]: > 100 µg/mL | IC50 [7, 13]: > 100 µM | IC50 [8, 14]: 59.2 µM | IC50 (K562 leukemia cell-line; [15]): 14.3 µM

COc1c(I)cc(C[C@@H](C(=O)NCCc2ccccc2)N(C)C)cc1I [Compound 2, apliamide B]
MIC [1, 9]: > 100 µg/mL | MIC ([2]; Gram(−), ATCC 14028): > 100 µg/mL | IC50 (sortase A): > 300 µM | IC50 (Na^+/K^+-ATPase): > 200 µM | MIC [3, 10]: > 100 µg/mL | MIC ([4]; Gram(+), ATCC 6538p): > 100 µg/mL | MIC [5, 11]: > 100 µg/mL | MIC [6, 12]: > 100 µg/mL | IC50 [7, 13]: 10.8 µM | IC50 [8, 14]: 73.7 µM | IC50 (K562 leukemia cell-line; [15]): 21.1 µM

COc1ccc(CCNC(=O)[C@H](Cc2cc(I)c(OC)c(I)c2)N(C)C)cc1I [Compound 3, apliamide C]
MIC [1, 9]: > 100 µg/mL | MIC ([2]; Gram(−), ATCC 14028): > 100 µg/mL | IC50 (sortase A): > 300 µM | IC50 (Na^+/K^+-ATPase): > 200 µM | MIC [3, 10]: > 100 µg/mL | MIC ([4]; Gram(+), ATCC 6538p): > 100 µg/mL | MIC [5, 11]: > 100 µg/mL | MIC [6, 12]: > 100 µg/mL | IC50 [7, 13]: 13.4 µM | IC50 [8, 14]: > 100 µM | IC50 (K562 leukemia cell-line; [15]): 10.4 µM

COc1c(I)cc(/C=C/C(=O)NCCc2ccccc2)cc1I [Compound 4, apliamide D]
MIC [1, 9]: > 100 µg/mL | MIC ([2]; Gram(−), ATCC 14028): > 100 µg/mL | IC50 (sortase A): > 300 µM | IC50 (Na^+/K^+-ATPase): 3.2 µM | MIC [3, 10]: > 100 µg/mL | MIC ([4]; Gram(+), ATCC 6538p): > 100 µg/mL | MIC [5, 11]: > 100 µg/mL | MIC [6, 12]: > 100 µg/mL | IC50 [7, 13]: > 100 µM | IC50 [8, 14]: > 100 µM | IC50 (K562 leukemia cell-line; [15]): 18.2 µM

CN(C)[C@@H](Cc1c[nH]c2cc(Br)ccc12)C(=O)NCCc1ccccc1 [Compound 5, apliamide E]
MIC [1, 9]: > 100 µg/mL | MIC ([2]; Gram(−), ATCC 14028): > 100 µg/mL | IC50 (sortase A): > 300 µM | IC50 (Na^+/K^+-ATPase): > 200 µM | MIC [3, 10]: > 100 µg/mL | MIC ([4]; Gram(+), ATCC 6538p): > 100 µg/mL | MIC [5, 11]: > 100 µg/mL | MIC [6, 12]: > 100 µg/mL | IC50 [7, 13]: 22.8 µM | IC50 [8, 14]: 37 µM | IC50 (K562 leukemia cell-line; [15]): 7.8 µM

COc1c(I)cc(CCN(C)C)cc1I [Compound 6, apliamine A]
MIC ([1]; ATCC6633, read-out: MIC, B: Bacillus subtilis): > 100 µg/mL | MIC [2]: > 100 µg/mL | IC50 (sortase A): > 300 µM | IC50 (Na^+/K^+-ATPase): 189 µM | MIC ([3]; IFO12708, read-out: MIC, C: Micrococcus luteus): > 100 µg/mL | MIC [4]: > 100 µg/mL | MIC ([5]; ATCC3851, read-out: MIC, E: Proteus vulgaris): > 100 µg/mL | MIC ([6]; ATCC35270, read-out: MIC, F: Escherichia coli): > 100 µg/mL | IC50 ([7]; A549, read-out: IC50, A549): 8.3 µM | IC50 ([8]; Homo sapiens, MRC5, read-out: IC50, MRC5): > 100 µM | IC50 (K562 leukemia cell-line; K562, read-out: IC50, K562): 19.7 µM

COc1cccc2c1C(=O)c1c(O)c3c(c(O)c1C2=O)C[C@@](O)(C(=O)CO)C[C@@H]3O[C@H]1C[C@H](N)[C@H](O)[C@H](C)O1 [Doxorubicin, reference compound]
IC50 [7, 13]: 1.4 µM | IC50 [8, 14]: 9.8 µM | IC50 (K562 leukemia cell-line; [15]): 1.2 µM

O=C(O)c1cc[c]([Hg][OH])cc1 [pHMB, para-Hydroxymercuribenzoic acid, reference compound]
IC50 (sortase A; sortase A inhibition, read-out: IC50, Srt A): 109 µM
